{"source": "PubChem BioAssay (NCI)", "assay_in_all_cases": "NCI-60 cell line screen, 48 h", "key": {"MALME-3M melanoma": {"system": "MALME-3M melanoma"}, "HOP-92 NSCLC": {"system": "HOP-92 NSCLC"}, "NCI-H23 lung": {"system": "NCI-H23 lung"}, "COLO 205 colon": {"system": "COLO 205 colon"}, "OVCAR-8 ovarian": {"system": "OVCAR-8 ovarian"}, "ACHN renal": {"system": "ACHN renal"}, "M14 melanoma": {"system": "M14 melanoma"}, "MCF7 breast": {"system": "MCF7 breast"}, "HS 578T breast": {"system": "HS 578T breast"}, "OVCAR-4 ovarian": {"system": "OVCAR-4 ovarian"}, "CAKI-1 renal": {"system": "CAKI-1 renal"}, "A549 NSCLC": {"system": "A549 NSCLC"}, "SK-MEL-5 melanoma": {"system": "SK-MEL-5 melanoma"}, "MDA-N": {"system": "MDA-N"}, "HT29 colon": {"system": "HT29 colon"}, "SW-620 colon": {"system": "SW-620 colon"}, "U251 CNS": {"system": "U251 CNS"}, "HCT-116 colon": {"system": "HCT-116 colon"}, "BT-549 breast": {"system": "BT-549 breast"}, "SF-268 CNS": {"system": "SF-268 CNS"}, "SF-295 CNS": {"system": "SF-295 CNS"}, "PC-3 prostate": {"system": "PC-3 prostate"}, "UACC-62 melanoma": {"system": "UACC-62 melanoma"}, "EKVX NSCLC": {"system": "EKVX NSCLC"}, "SK-MEL-2 melanoma": {"system": "SK-MEL-2 melanoma"}, "SK-OV-3 ovarian": {"system": "SK-OV-3 ovarian"}, "K-562 leukemia": {"system": "K-562 leukemia"}, "DU-145 prostate": {"system": "DU-145 prostate"}, "NCI-H522 lung": {"system": "NCI-H522 lung"}, "NCI/ADR-RES ovarian": {"system": "NCI/ADR-RES ovarian"}, "MDA-MB-435": {"system": "MDA-MB-435"}, "SN12C renal": {"system": "SN12C renal"}, "SNB-75 CNS": {"system": "SNB-75 CNS"}, "SF-539 CNS": {"system": "SF-539 CNS"}, "IGROV1 ovarian": {"system": "IGROV1 ovarian"}, "LOX IMVI melanoma": {"system": "LOX IMVI melanoma"}, "TK-10 renal": {"system": "TK-10 renal"}, "UO-31 renal": {"system": "UO-31 renal"}, "NCI-H226 lung": {"system": "NCI-H226 lung"}, "SNB-19 CNS": {"system": "SNB-19 CNS"}, "KM12 colon": {"system": "KM12 colon"}, "UACC-257 melanoma": {"system": "UACC-257 melanoma"}, "HCT-15 colon": {"system": "HCT-15 colon"}, "SK-MEL-28 melanoma": {"system": "SK-MEL-28 melanoma"}, "MDA-MB-231 breast": {"system": "MDA-MB-231 breast"}, "MOLT-4 leukemia": {"system": "MOLT-4 leukemia"}, "T-47D breast": {"system": "T-47D breast"}, "SR leukemia": {"system": "SR leukemia"}, "786-0 renal": {"system": "786-0 renal"}, "CCRF-CEM leukemia": {"system": "CCRF-CEM leukemia"}, "OVCAR-5 ovarian": {"system": "OVCAR-5 ovarian"}, "RXF 393 renal": {"system": "RXF 393 renal"}, "HL-60(TB) leukemia": {"system": "HL-60(TB) leukemia"}}, "note": "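All cell lines were grown in 96-well plates and treated with compound for 48 hours. TGI is the concentration that stops growth completely.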 Square brackets hold non-standard residues; d marks the D form. Peptide text beside a SMILES is read from it. * marks the point of attachment. Boc = CC(C)(C)OC(=O)*; OBn = c1ccc(CO*)cc1"}
{"smiles": "C[C@@H](NC(=O)CNC(=O)OC(C)(C)C)C(=O)N[C@@H](Cc1ccccc1)C(=O)OCc1ccccc1", "note": "(Boc-Gly-[dA]-Phe-OBn)", "values": [{"measurement": "TGI", "setting": "MALME-3M melanoma", "value": 32.6, "unit": "µM"}, {"measurement": "TGI", "setting": "HOP-92 NSCLC", "value": 45.3, "unit": "µM"}, {"measurement": "TGI", "setting": "NCI-H23 lung", "value": "> 100", "unit": "µM"}, {"measurement": "TGI", "setting": "COLO 205 colon", "value": 32.7, "unit": "µM"}, {"measurement": "TGI", "setting": "OVCAR-8 ovarian", "value": "> 100", "unit": "µM"}, {"measurement": "TGI", "setting": "ACHN renal", "value": "> 100", "unit": "µM"}, {"measurement": "TGI", "setting": "M14 melanoma", "value": 44.7, "unit": "µM"}, {"measurement": "TGI", "setting": "MCF7 breast", "value": "> 100", "unit": "µM"}, {"measurement": "TGI", "setting": "HS 578T breast", "value": 71.2, "unit": "µM"}, {"measurement": "TGI", "setting": "OVCAR-4 ovarian", "value": "> 100", "unit": "µM"}, {"measurement": "TGI", "setting": "CAKI-1 renal", "value": "> 100", "unit": "µM"}, {"measurement": "TGI", "setting": "A549 NSCLC", "value": "> 100", "unit": "µM"}, {"measurement": "TGI", "setting": "SK-MEL-5 melanoma", "value": 42.2, "unit": "µM"}, {"measurement": "TGI", "setting": "MDA-N", "value": "> 100", "unit": "µM"}, {"measurement": "TGI", "setting": "HT29 colon", "value": "> 100", "unit": "µM"}, {"measurement": "TGI", "setting": "SW-620 colon", "value": "> 100", "unit": "µM"}, {"measurement": "TGI", "setting": "U251 CNS", "value": "> 100", "unit": "µM"}, {"measurement": "TGI", "setting": "HCT-116 colon", "value": "> 100", "unit": "µM"}, {"measurement": "TGI", "setting": "BT-549 breast", "value": "> 100", "unit": "µM"}, {"measurement": "TGI", "setting": "SF-268 CNS", "value": "> 100", "unit": "µM"}, {"measurement": "TGI", "setting": "SF-295 CNS", "value": "> 100", "unit": "µM"}, {"measurement": "TGI", "setting": "PC-3 prostate", "value": "> 100", "unit": "µM"}, {"measurement": "TGI", "setting": "UACC-62 melanoma", "value": "> 100", "unit": "µM"}, {"measurement": "TGI", "setting": "EKVX NSCLC", "value": "> 100", "unit": "µM"}, {"measurement": "TGI", "setting": "SK-MEL-2 melanoma", "value": "> 100", "unit": "µM"}, {"measurement": "TGI", "setting": "SK-OV-3 ovarian", "value": "> 100", "unit": "µM"}, {"measurement": "TGI", "setting": "K-562 leukemia", "value": 64.4, "unit": "µM"}, {"measurement": "TGI", "setting": "DU-145 prostate", "value": "> 100", "unit": "µM"}, {"measurement": "TGI", "setting": "NCI-H522 lung", "value": 80.4, "unit": "µM"}, {"measurement": "TGI", "setting": "NCI/ADR-RES ovarian", "value": "> 100", "unit": "µM"}, {"measurement": "TGI", "setting": "MDA-MB-435", "value": "> 100", "unit": "µM"}, {"measurement": "TGI", "setting": "SN12C renal", "value": "> 100", "unit": "µM"}, {"measurement": "TGI", "setting": "SNB-75 CNS", "value": "> 100", "unit": "µM"}, {"measurement": "TGI", "setting": "SF-539 CNS", "value": "> 100", "unit": "µM"}, {"measurement": "TGI", "setting": "IGROV1 ovarian", "value": "> 100", "unit": "µM"}, {"measurement": "TGI", "setting": "LOX IMVI melanoma", "value": 58, "unit": "µM"}, {"measurement": "TGI", "setting": "TK-10 renal", "value": "> 100", "unit": "µM"}, {"measurement": "TGI", "setting": "UO-31 renal", "value": "> 100", "unit": "µM"}, {"measurement": "TGI", "setting": "NCI-H226 lung", "value": "> 100", "unit": "µM"}, {"measurement": "TGI", "setting": "SNB-19 CNS", "value": "> 100", "unit": "µM"}, {"measurement": "TGI", "setting": "KM12 colon", "value": "> 100", "unit": "µM"}, {"measurement": "TGI", "setting": "UACC-257 melanoma", "value": "> 100", "unit": "µM"}, {"measurement": "TGI", "setting": "HCT-15 colon", "value": "> 100", "unit": "µM"}, {"measurement": "TGI", "setting": "SK-MEL-28 melanoma", "value": 39.4, "unit": "µM"}, {"measurement": "TGI", "setting": "MDA-MB-231 breast", "value": "> 100", "unit": "µM"}, {"measurement": "TGI", "setting": "MOLT-4 leukemia", "value": 88.1, "unit": "µM"}, {"measurement": "TGI", "setting": "T-47D breast", "value": "> 100", "unit": "µM"}, {"measurement": "TGI", "setting": "SR leukemia", "value": 88.9, "unit": "µM"}, {"measurement": "TGI", "setting": "786-0 renal", "value": "> 100", "unit": "µM"}, {"measurement": "TGI", "setting": "CCRF-CEM leukemia", "value": 67, "unit": "µM"}, {"measurement": "TGI", "setting": "OVCAR-5 ovarian", "value": "> 100", "unit": "µM"}, {"measurement": "TGI", "setting": "RXF 393 renal", "value": "> 100", "unit": "µM"}, {"measurement": "TGI", "setting": "HL-60(TB) leukemia", "value": "> 100", "unit": "µM"}]}
